Results on 1 compound are retold here after ChEMBL document CHEMBL6071211, “Invention of VH-937, a Potent HIV-1 Maturation Inhibitor with the Potential for Infrequent Oral Dosing in Humans” (ACS Med Chem Lett, 2024).

As a reminder, the pEC50 is the negative decadic logarithm of the EC50, by convention in mol/L. High values mean a small EC50, low ones a large EC50. In general, bioavailability refers to dose-corrected exposure relative to a reference, in per cent. A higher bioavailability goes with much systemic uptake. As a reminder, the solubility is the dissolved amount per volume that the medium holds. Lower therefore signals little dissolved substance. As a reminder, the AUC(0-inf) is the area under the concentration-time curve extrapolated to infinity. Low values mean less exposure, high ones more exposure. One may read the pIC50 as the IC50 on a negative log10 scale, so that one unit is a factor of ten. Lower therefore signals a large IC50. By clearance is commonly meant a measure of how efficiently the substance is removed, as volume per time. The low end stands for a low capacity for elimination, the high end for a high capacity for elimination.

Data set [1] has as its system Human immunodeficiency virus 1. As to the kind of experiment: In vitro antiviral activity against fully replicating HIV1 NL4-3 harboring Gag T332S/V362I/prR41G mutant. The conditions noted are these: Human immunodeficiency virus 1, NL4-3. In kind it is functional, organism-based.
For data set [2], the system named is Human immunodeficiency virus 1. As to the kind of experiment: In vitro antiviral activity against fully replicating HIV1 harboring Gag T332S/[…]/prR41G mutant by multicycle assay. The class given is functional, organism-based.
Data set [3] in a line: Oral bioavailability in dog at 5 mg/kg. In kind it is ADME, organism-based, Canis lupus familiaris. Particulars: in vivo.
A short description of data set [4]: Aqueous solubility of compound in fed state simulated intestinal fluid (FeSSIF). The conditions noted are these: simulated gi fluid. The class given is physicochemical.
Data set [5] in a line: AUC (infinity) in rat at 1 mg/kg, iv. In kind it is ADME, organism-based. The conditions noted are these: in vivo.
Data set [6] is described as follows: Volume of distribution at steady state in rat at 1 mg/kg, iv. The class given is ADME, organism-based. The conditions noted are these: in vivo, read-out: Vdss.
A further data set has as its target T1, Cytochrome P450 1A2 (Homo sapiens, UniProt P05177).
T1 sequence (P05177 whole entry): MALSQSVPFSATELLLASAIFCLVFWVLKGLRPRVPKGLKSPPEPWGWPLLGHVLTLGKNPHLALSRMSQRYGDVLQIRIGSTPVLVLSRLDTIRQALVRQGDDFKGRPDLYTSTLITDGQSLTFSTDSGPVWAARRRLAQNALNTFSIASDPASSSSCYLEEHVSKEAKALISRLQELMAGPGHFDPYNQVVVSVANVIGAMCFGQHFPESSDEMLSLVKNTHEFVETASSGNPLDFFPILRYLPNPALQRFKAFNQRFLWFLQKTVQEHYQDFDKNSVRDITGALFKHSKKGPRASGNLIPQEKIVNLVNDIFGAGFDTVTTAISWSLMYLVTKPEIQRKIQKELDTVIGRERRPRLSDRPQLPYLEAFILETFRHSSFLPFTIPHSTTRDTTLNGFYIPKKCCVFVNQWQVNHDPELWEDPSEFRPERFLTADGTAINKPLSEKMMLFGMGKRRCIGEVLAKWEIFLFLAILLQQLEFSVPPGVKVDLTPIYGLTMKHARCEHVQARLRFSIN
As to the kind of experiment: Inhibition of CYP1A2 (unknown origin). In kind it is ADME.

The subject of data set [7] is Human immunodeficiency virus 1. As to the kind of experiment: Ratio of EC50 for antiviral activity against fully replicating HIV1 harboring Gag deltaV370 mutant by multicycle assay to EC50 for antiviral activity against fully replicating wild type HIV1 NLRepRluc-P373S by multicycle assay. In kind it is functional.
Data set [8] relates to Human immunodeficiency virus 1. As to the kind of experiment: In vitro antiviral activity against fully replicating HIV1 harboring Gag […]/V370A mutant assessed as maximum percent inhibition by multicycle assay relative to control. In kind it is functional.
The test system of data set [9] is Human immunodeficiency virus 1. As to the kind of experiment: In vitro antiviral activity against fully replicating HIV1 harboring Gag T332S/[…]/prR41G mutant assessed as maximum percent inhibition by multicycle assay relative to control. The class given is functional.
The nature of data set [10]: Clearance in mouse at 1 mg/kg, iv. The class given is ADME, organism-based. The conditions noted are these: in vivo.
Data set [11] in a line: Aqueous solubility of compound in fasted state simulated intestinal fluid (FaSSIF) at pH 6.6. In kind it is physicochemical.
Data set [12] deals with Human immunodeficiency virus type 1 Gag protein (Human immunodeficiency virus 1) (UniProt Q77YG1). As to the kind of experiment: Binding affinity to HIV1 wild type Gag mutant assessed as dissociation half life by virus-like particle (VLP) assay.
Data set [13] relates to Human immunodeficiency virus 1. As to the kind of experiment: Ratio of EC50 for antiviral activity against fully replicating HIV1 harboring Gag V370A/deltaV371 by multicycle assay to EC50 for antiviral activity against fully replicating wild type HIV1 NLRepRluc-P373S by multicycle assay. In kind it is functional.

pEC50, pIC50: −log10 of the molar value. ≈ marks a conversion by molar mass, not a printed value.

Regarding `C=C(C)[C@@H]1CC[C@]2(NCCN3CCS(=O)(=O)CC3)CC[C@]3(C)[C@H](CC[C@@H]4[C@@]5(C)CC=C(C6=CC[C@](COc7ncccc7C#N)(C(=O)O)CC6)C(C)(C)[C@@H]5CC[C@]43C)[C@@H]12`, the pEC50 in data set [1] and in [2] was 8.10 in each case. In data set [3], this compound showed a bioavailability of 59%. For the same compound, the figures for the solubility in [4] and in data set [11] were 363 µg/mL (≈ 0.439 mM) and 19000 µg/mL (≈ 23 mM), respectively. In data set [5], this compound returned an AUC(0-inf) of 16.1 µM·h. Further, the Vd in data set [6] came out at 0.87 L/kg. This compound showed a pIC50 on Cytochrome P450 1A2 of less than 5.36. In addition, the figures for the “Ratio EC50” value in [7] and in data set [13] were 2 and 2.5, respectively. For the same compound, the results for the Imax in data set [8] and in data set [9] were 94% and 98%, respectively. The clearance in data set [10] is 0.63 mL/min/kg. Further, in data set [12], the T1/2 was 68.8 h.
